Data reported in PubChem BioAssay (NCI).
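Five compound concentrations were applied to cells in 96-well plates for 48 hours; endpoints were derived by simple linear interpolation of the resulting dose-response curve. Definition used: TGI = concentration required for complete inhibition of growth.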

What was measured:
Experiment in all cases: growth of human tumour cells (NCI), 48 h
SF-295 CNS = system: SF-295 CNS
HL-60(TB) leukemia = system: HL-60(TB) leukemia
DMS 273 small cell lung = system: DMS 273 small cell lung
SF-268 CNS = system: SF-268 CNS
LOX IMVI melanoma = system: LOX IMVI melanoma
HS 578T breast = system: HS 578T breast
HOP-92 NSCLC = system: HOP-92 NSCLC
T-47D breast = system: T-47D breast
SN12C renal = system: SN12C renal
M14 melanoma = system: M14 melanoma
M19-MEL melanoma = system: M19-MEL melanoma
CCRF-CEM leukemia = system: CCRF-CEM leukemia
OVCAR-5 ovarian = system: OVCAR-5 ovarian
MCF7 breast = system: MCF7 breast
U251 CNS = system: U251 CNS
SW-620 colon = system: SW-620 colon
BT-549 breast = system: BT-549 breast
HOP-62 NSCLC = system: HOP-62 NSCLC
OVCAR-4 ovarian = system: OVCAR-4 ovarian
NCI-H460 lung = system: NCI-H460 lung
HCT-15 colon = system: HCT-15 colon
MDA-MB-231 breast = system: MDA-MB-231 breast
NCI/ADR-RES ovarian = system: NCI/ADR-RES ovarian
NCI-H226 lung = system: NCI-H226 lung
UACC-257 melanoma = system: UACC-257 melanoma
XF 498 CNS = system: XF 498 CNS
RPMI-8226 leukemia = system: RPMI-8226 leukemia
DU-145 prostate = system: DU-145 prostate
RXF-631 renal = system: RXF-631 renal
TK-10 renal = system: TK-10 renal
UACC-62 melanoma = system: UACC-62 melanoma
IGROV1 ovarian = system: IGROV1 ovarian
CAKI-1 renal = system: CAKI-1 renal
PC-3 prostate = system: PC-3 prostate
OVCAR-8 ovarian = system: OVCAR-8 ovarian
SR leukemia = system: SR leukemia
SNB-75 CNS = system: SNB-75 CNS
SK-MEL-2 melanoma = system: SK-MEL-2 melanoma
A549 NSCLC = system: A549 NSCLC
SK-MEL-5 melanoma = system: SK-MEL-5 melanoma
UO-31 renal = system: UO-31 renal
MDA-MB-435 = system: MDA-MB-435
SF-539 CNS = system: SF-539 CNS
RXF 393 renal = system: RXF 393 renal
HT29 colon = system: HT29 colon
KM12 colon = system: KM12 colon
NCI-H23 lung = system: NCI-H23 lung
DLD-1 colon = system: DLD-1 colon
SK-OV-3 ovarian = system: SK-OV-3 ovarian
SNB-78 CNS = system: SNB-78 CNS
LXFL 529 NSCLC = system: LXFL 529 NSCLC
HCC-2998 colon = system: HCC-2998 colon
OVCAR-3 ovarian = system: OVCAR-3 ovarian
DMS 114 small cell lung = system: DMS 114 small cell lung
MOLT-4 leukemia = system: MOLT-4 leukemia
NCI-H522 lung = system: NCI-H522 lung
MDA-N = system: MDA-N
MALME-3M melanoma = system: MALME-3M melanoma
SK-MEL-28 melanoma = system: SK-MEL-28 melanoma
KM20L2 colon = system: KM20L2 colon
786-0 renal = system: 786-0 renal
A498 renal = system: A498 renal
ACHN renal = system: ACHN renal
HOP-18 NSCLC = system: HOP-18 NSCLC
HCT-116 colon = system: HCT-116 colon
COLO 205 colon = system: COLO 205 colon
K-562 leukemia = system: K-562 leukemia
EKVX NSCLC = system: EKVX NSCLC
SNB-19 CNS = system: SNB-19 CNS

SMILES: CC(C)(C)c1nc2c(o1)C(=O)c1ccccc1C2=O
- TGI (SF-295 CNS): 4.25 µM
- TGI (HL-60(TB) leukemia): 1.78 µM
- TGI (DMS 273 small cell lung): 12 µM
- TGI (SF-268 CNS): 10.5 µM
- TGI (LOX IMVI melanoma): 1.94 µM
- TGI (HS 578T breast): 4.26 µM
- TGI (HOP-92 NSCLC): 6.44 µM
- TGI (T-47D breast): 3.97 µM
- TGI (SN12C renal): 2.29 µM
- TGI (M14 melanoma): 1.97 µM
- TGI (M19-MEL melanoma): 2.84 µM
- TGI (CCRF-CEM leukemia): > 29.5 µM
- TGI (OVCAR-5 ovarian): 4.85 µM
- TGI (MCF7 breast): 1.35 µM
- TGI (U251 CNS): 4.6 µM
- TGI (SW-620 colon): 4.4 µM
- TGI (BT-549 breast): 2.84 µM
- TGI (HOP-62 NSCLC): 6.34 µM
- TGI (OVCAR-4 ovarian): 2.44 µM
- TGI (NCI-H460 lung): 8.19 µM
- TGI (HCT-15 colon): 6.45 µM
- TGI (MDA-MB-231 breast): 1.97 µM
- TGI (NCI/ADR-RES ovarian): 1.76 µM
- TGI (NCI-H226 lung): 6.36 µM
- TGI (UACC-257 melanoma): 1.43 µM
- TGI (XF 498 CNS): 7.15 µM
- TGI (RPMI-8226 leukemia): 16.8 µM
- TGI (DU-145 prostate): 2.57 µM
- TGI (RXF-631 renal): 14.9 µM
- TGI (TK-10 renal): 11.7 µM
- TGI (UACC-62 melanoma): 1.58 µM
- TGI (IGROV1 ovarian): 6.04 µM
- TGI (CAKI-1 renal): 6.77 µM
- TGI (PC-3 prostate): 2.22 µM
- TGI (OVCAR-8 ovarian): 3.37 µM
- TGI (SR leukemia): 45 µM
- TGI (SNB-75 CNS): 6.7 µM
- TGI (SK-MEL-2 melanoma): 1.83 µM
- TGI (A549 NSCLC): 8.22 µM
- TGI (SK-MEL-5 melanoma): 2.9 µM
- TGI (UO-31 renal): 6.23 µM
- TGI (MDA-MB-435): 0.327 µM
- TGI (SF-539 CNS): 3.4 µM
- TGI (RXF 393 renal): 5.54 µM
- TGI (HT29 colon): 10.7 µM
- TGI (KM12 colon): 6.76 µM
- TGI (NCI-H23 lung): 1.78 µM
- TGI (DLD-1 colon): 14.5 µM
- TGI (SK-OV-3 ovarian): 10.2 µM
- TGI (SNB-78 CNS): 39.1 µM
- TGI (LXFL 529 NSCLC): 18.1 µM
- TGI (HCC-2998 colon): 7.39 µM
- TGI (OVCAR-3 ovarian): 2.03 µM
- TGI (DMS 114 small cell lung): 5.89 µM
- TGI (MOLT-4 leukemia): 16.9 µM
- TGI (NCI-H522 lung): 3.85 µM
- TGI (MDA-N): 0.367 µM
- TGI (MALME-3M melanoma): 1.48 µM
- TGI (SK-MEL-28 melanoma): 4.35 µM
- TGI (KM20L2 colon): 48.2 µM
- TGI (786-0 renal): 5.51 µM
- TGI (A498 renal): 11.5 µM
- TGI (ACHN renal): 5.69 µM
- TGI (HOP-18 NSCLC): 18.9 µM
- TGI (HCT-116 colon): 2.87 µM
- TGI (COLO 205 colon): 8.86 µM
- TGI (K-562 leukemia): 13.8 µM
- TGI (EKVX NSCLC): 6.51 µM
- TGI (SNB-19 CNS): 9.81 µM

SMILES: CCCC/C=C/C1Cc2ccccc2CN1S(=O)(=O)c1ccc(C)cc1 (stereo not given)
- TGI (SF-295 CNS): 35.6 µM
- TGI (HL-60(TB) leukemia): > 100 µM
- TGI (DMS 273 small cell lung): 29.6 µM
- TGI (SF-268 CNS): 30 µM
- TGI (LOX IMVI melanoma): 22.3 µM
- TGI (HOP-92 NSCLC): 8.82 µM
- TGI (SN12C renal): 23 µM
- TGI (M14 melanoma): 26 µM
- TGI (M19-MEL melanoma): 18.8 µM
- TGI (CCRF-CEM leukemia): 42.3 µM
- TGI (OVCAR-5 ovarian): 82.3 µM
- TGI (U251 CNS): 39.3 µM
- TGI (SW-620 colon): 24.1 µM
- TGI (HOP-62 NSCLC): > 100 µM
- TGI (OVCAR-4 ovarian): 24.7 µM
- TGI (NCI-H460 lung): 31.3 µM
- TGI (HCT-15 colon): 49.2 µM
- TGI (NCI-H226 lung): 25.8 µM
- TGI (UACC-257 melanoma): 17.9 µM
- TGI (XF 498 CNS): 78.1 µM
- TGI (RPMI-8226 leukemia): 5.72 µM
- TGI (RXF-631 renal): 20.9 µM
- TGI (TK-10 renal): 61.3 µM
- TGI (UACC-62 melanoma): 27.5 µM
- TGI (IGROV1 ovarian): 26.9 µM
- TGI (OVCAR-8 ovarian): 28.6 µM
- TGI (SR leukemia): 41.8 µM
- TGI (SNB-75 CNS): 37.5 µM
- TGI (SK-MEL-2 melanoma): > 100 µM
- TGI (A549 NSCLC): 26.3 µM
- TGI (SK-MEL-5 melanoma): 14.9 µM
- TGI (UO-31 renal): 18.7 µM
- TGI (SF-539 CNS): 33 µM
- TGI (RXF 393 renal): 23.9 µM
- TGI (HT29 colon): 21.7 µM
- TGI (KM12 colon): 22.1 µM
- TGI (NCI-H23 lung): 16.4 µM
- TGI (DLD-1 colon): 32.9 µM
- TGI (SK-OV-3 ovarian): 90.6 µM
- TGI (LXFL 529 NSCLC): 22.1 µM
- TGI (HCC-2998 colon): 25.3 µM
- TGI (OVCAR-3 ovarian): 24.1 µM
- TGI (DMS 114 small cell lung): 12.2 µM
- TGI (MOLT-4 leukemia): 53.3 µM
- TGI (NCI-H522 lung): 20.2 µM
- TGI (MALME-3M melanoma): > 100 µM
- TGI (SK-MEL-28 melanoma): 22.7 µM
- TGI (KM20L2 colon): 26.2 µM
- TGI (786-0 renal): 25.1 µM
- TGI (ACHN renal): 22.5 µM
- TGI (HOP-18 NSCLC): > 100 µM
- TGI (HCT-116 colon): 3.35 µM
- TGI (COLO 205 colon): 22 µM
- TGI (K-562 leukemia): > 100 µM
- TGI (EKVX NSCLC): > 100 µM
- TGI (SNB-19 CNS): > 100 µM

SMILES: COc1ccc(/C(Cl)=C(\C=O)c2ccc([N+](=O)[O-])cc2)cc1OC
- TGI (SF-295 CNS): 44.2 µM
- TGI (HL-60(TB) leukemia): 11.6 µM
- TGI (DMS 273 small cell lung): 32 µM
- TGI (SF-268 CNS): 29.4 µM
- TGI (LOX IMVI melanoma): 12.4 µM
- TGI (HS 578T breast): > 100 µM
- TGI (HOP-92 NSCLC): 24.9 µM
- TGI (T-47D breast): > 100 µM
- TGI (SN12C renal): 22.1 µM
- TGI (M14 melanoma): 43.5 µM
- TGI (M19-MEL melanoma): 24.3 µM
- TGI (CCRF-CEM leukemia): > 24.7 µM
- TGI (OVCAR-5 ovarian): > 100 µM
- TGI (MCF7 breast): 36.8 µM
- TGI (U251 CNS): 20.2 µM
- TGI (SW-620 colon): 28.1 µM
- TGI (HOP-62 NSCLC): > 100 µM
- TGI (NCI-H460 lung): 34 µM
- TGI (HCT-15 colon): 23.7 µM
- TGI (MDA-MB-231 breast): 83.9 µM
- TGI (NCI/ADR-RES ovarian): 53.3 µM
- TGI (NCI-H226 lung): > 54.8 µM
- TGI (UACC-257 melanoma): 29.7 µM
- TGI (XF 498 CNS): 9.59 µM
- TGI (RPMI-8226 leukemia): > 25.8 µM
- TGI (DU-145 prostate): > 100 µM
- TGI (RXF-631 renal): 26.9 µM
- TGI (TK-10 renal): > 47.3 µM
- TGI (UACC-62 melanoma): 16.2 µM
- TGI (IGROV1 ovarian): 38.6 µM
- TGI (CAKI-1 renal): 26.4 µM
- TGI (PC-3 prostate): 48.1 µM
- TGI (OVCAR-8 ovarian): > 86 µM
- TGI (SR leukemia): 83.3 µM
- TGI (SNB-75 CNS): 20 µM
- TGI (SK-MEL-2 melanoma): > 77.1 µM
- TGI (A549 NSCLC): > 100 µM
- TGI (SK-MEL-5 melanoma): 23 µM
- TGI (UO-31 renal): 28.9 µM
- TGI (MDA-MB-435): 13.5 µM
- TGI (SF-539 CNS): 30.8 µM
- TGI (RXF 393 renal): 19.2 µM
- TGI (HT29 colon): > 30.5 µM
- TGI (KM12 colon): 94.4 µM
- TGI (NCI-H23 lung): 15.8 µM
- TGI (SK-OV-3 ovarian): 60 µM
- TGI (SNB-78 CNS): 56.5 µM
- TGI (LXFL 529 NSCLC): 13.7 µM
- TGI (OVCAR-3 ovarian): 38 µM
- TGI (DMS 114 small cell lung): 22.3 µM
- TGI (MOLT-4 leukemia): > 27.4 µM
- TGI (NCI-H522 lung): > 35.8 µM
- TGI (MDA-N): 14.5 µM
- TGI (MALME-3M melanoma): 41 µM
- TGI (SK-MEL-28 melanoma): 30.5 µM
- TGI (KM20L2 colon): 25.5 µM
- TGI (786-0 renal): 20.1 µM
- TGI (A498 renal): > 54.4 µM
- TGI (ACHN renal): 25 µM
- TGI (HOP-18 NSCLC): 23.7 µM
- TGI (HCT-116 colon): 24.9 µM
- TGI (COLO 205 colon): > 58.3 µM
- TGI (K-562 leukemia): > 93.3 µM
- TGI (EKVX NSCLC): > 59.7 µM
- TGI (SNB-19 CNS): > 100 µM
